Measured values: PubChem BioAssay (NCI)
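A five-concentration, 48-hour dose response in 96-well plates underlies each endpoint, interpolated linearly between surrounding concentrations. Here, GI50 denotes the concentration required for 50% inhibition of growth. Definition used: TGI = concentration required for complete inhibition of growth.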

Tests used:
Test in all cases: NCI-60 cell line screen, 48 h
HT29 colon = test system: HT29 colon
SK-MEL-5 melanoma = test system: SK-MEL-5 melanoma
U251 CNS = test system: U251 CNS
M14 melanoma = test system: M14 melanoma
MOLT-4 leukemia = test system: MOLT-4 leukemia
A498 renal = test system: A498 renal
OVCAR-4 ovarian = test system: OVCAR-4 ovarian
RXF 393 renal = test system: RXF 393 renal

Row | Structure (SMILES) | GI50 (HT29 colon) [µM] | TGI (HT29 colon) [µM] | GI50 (SK-MEL-5 melanoma) [µM] | TGI (SK-MEL-5 melanoma) [µM] | GI50 (U251 CNS) [µM] | TGI (U251 CNS) [µM] | GI50 (M14 melanoma) [µM] | TGI (M14 melanoma) [µM] | GI50 (MOLT-4 leukemia) [µM] | TGI (MOLT-4 leukemia) [µM] | GI50 (A498 renal) [µM] | TGI (A498 renal) [µM] | GI50 (OVCAR-4 ovarian) [µM] | TGI (OVCAR-4 ovarian) [µM] | GI50 (RXF 393 renal) [µM] | TGI (RXF 393 renal) [µM]
1 | O=C(NCCCc1cn[nH]c1)c1ccc(-c2ccncc2)c(C#Cc2ccc(F)cc2)c1 | < 0.01 | 36.7 | 2.3 | 16.6 | 0.243 | > 100 | < 0.01 | > 54.7 | 1.02 | > 57 | 20.1 | > 68.5 | 11.6 | > 100 | 3.58 | 19.8
2 | COC(=O)Nc1nc2ccccc2[nH]1 |  | > 100 |  | > 100 |  | > 100 |  | > 100 |  | > 100 |  | > 100 |  | > 100 |  | > 100
3 | N#CC1=C(N)Oc2c(ccc3ccccc23)C1c1cc(=O)oc2ccc(Cl)cc12 (centres undefined) | 1.91 | 6.89 | 0.484 | 14.4 | 0.535 | 20.2 | 0.441 | > 100 | 0.887 | 87.8 | 0.805 | 42.2 | 4.31 | > 100 | 0.217 | 1.93
4 | CS(=O)(=O)c1ccc(Nc2nc(N[C@H]3CCCC[C@H]3N)nc3cc[nH]c(=O)c23)cc1 | 2.48 | 11.8 | 1.53 | 3.25 | 0.664 | 21.1 | 2.16 | 8.83 | 2.95 | 17.5 | 3.31 | 12.4 | 1.89 | 9.81 | 1.03 | 3.04
5 | CN=C1C=CC(=C(c2ccc(N(C)C)cc2)c2ccc(N(C)C)cc2)C=C1 | 0.105 | 0.496 | 0.182 | 0.364 | 0.0582 | 0.682 | 0.28 | 1.08 | 0.369 | 6.98 | 0.193 | 0.734 | 0.378 | 2.7 | 0.207 | 0.583
6 | CCN(CC)CCCC(C)Nc1cc(-c2cccc(OC(F)(F)F)c2)nc2ccc(N3CCCC3)cc12 (centres undefined) | 0.0394 | 11.2 | 0.126 | 0.589 | 0.0473 | 21.9 | 0.0361 | 1.16 | 0.306 | > 100 | 0.0301 | 3.03 | 0.483 | > 100 | 0.0357 | 89.1
7 | S=C1Cc2c(-c3ccc(Br)cc3)cc(-c3ccccc3)nc2-c2ccccc2N1 |  | 5.81 |  | 23.5 |  | 2.58 |  | 11.8 |  | 72 |  | 3.71 |  | 1.43 |  | 6.01
8 | CNCCCNc1nc2ccccc2c2c(=O)c3cc(OC)ccc3sc12 | 1.72 | 3.56 | 1.72 | 3.13 | 1.81 | 3.71 | 1.99 | 3.82 | 2.06 | 4.41 | 2.25 | 8.72 | 1.96 | 4.03 | 1.56 | 3.07
9 | Cc1c(C#N)cccc1[C@@H](C)Nc1nnc(C)c2cnc(N3CCOCC3)cc12 | 35.2 | > 100 | 10.1 | 21.9 | 29.8 | > 100 | 27 | 90.4 | 28.3 | 90.6 | 2.72 | > 100 | 13.9 | 61.8 | 11.3 | > 100
10 | CC(=O)OC12C=C(C)C(C(C)C1)C1C(=O)N(CCN3CCCCC3)C(=O)C12 (centres undefined) | > 50 | > 50 | > 50 | > 50 | > 50 | > 50 | > 50 | > 50 | > 50 | > 50 | > 50 | > 50 | > 50 | > 50 | 19.9 | > 50
11 | O=C(Nc1ccccc1I(=O)=O)C1CCCCC1 | > 100 | > 100 | > 100 | > 100 | > 100 | > 100 |  |  | 98.5 | > 100 | > 100 | > 100 | > 100 | > 100 | > 100 | > 100
12 | COc1ccccc1S(=O)(=O)Nc1ccc2c3c(cc(CCC(=O)NCCCCNc4cccc5c4C(=O)N(C4CCC(=O)NC4=O)C5=O)cc13)C(=O)N2C (centres undefined) | 3.84 | > 100 | 0.982 | 3.32 | > 63.4 | > 100 | 1.11 | > 100 | 0.0352 |  | 0.659 | 6.08 | 0.259 | 1.44 | 0.862 | 4.5
13 | Cc1cc(C)c(C#N)c(Sc2nc(C)c([N+](=O)[O-])c(C)c2C#N)n1 | 3.71 | 10.8 | 4.02 | 16.4 | 3.1 | 10.8 | 3.07 | 10.4 | 3.03 | > 100 | 13.1 | 27 | 2.27 | 6.64 | 2.16 | 5.55
14 | O=C(O)/C(Cc1cn[nH]n1)=N\O |  | > 100 |  | > 100 |  | > 100 |  | > 100 |  | > 100 |  | > 100 |  | > 100 |  | > 100
15 | CC(=O)N1CCN(CCNC(=O)n2cc(-c3ccncc3)c(-c3cc(O)cc(Cl)c3)n2)CC1 | 3.28 | 11.9 | 3.66 | 16.9 | 10.9 | 26.1 | 1.23 | 4.87 | 10.4 | 49.2 | 11.7 | 28.3 | 27.8 | > 100 | 3.67 | 17.7
16 | CC(C)OC(=S)Nc1ccc(Cl)c(/C=N/OC(C)(C)C)c1 |  | 28.6 |  | 31.8 |  | 31.7 |  | 39.9 |  | 30.8 |  | 28.2 |  | 35.3 |  | 30.9
17 | C=C1C(O)C2CC(C)(CO)C(=O)C2=C(CC(C)C)C12CC2 (centres undefined) | > 100 | > 100 | 82.8 | > 100 | 77 | > 100 | 92.7 | > 100 | 81.8 | > 100 | > 100 | > 100 | > 100 | > 100 | > 100 | > 100
18 | COC(=O)c1c(-c2cccs2)oc(-c2cccs2)c1C(=O)OC | 60.2 | > 100 |  |  | 59.6 | > 100 | 20.3 | 55.2 |  |  | 31.8 | 94.4 | 77.8 | > 100 | 31 | > 100
19 | COc1cccc2cc(N(C)c3nc(C)nc4c3CCC4)ccc12 | < 0.01 | 0.608 | < 0.01 | 0.0161 | < 0.01 | 12.8 | < 0.01 | 14 | < 0.01 | 16.1 | < 0.01 | 14.7 | < 0.0104 | 20 | < 0.01 | 23.7
20 | COc1ccc(-c2nc(-c3nc4ccc(C)cc4[nH]3)cc3c2[nH]c2ccccc23)cc1 | 5.29 | > 100 | 3.12 | 12.6 | 3.42 | > 100 | 3.09 | 11.7 | 2.31 | 10 | 2.36 | > 100 | 4.09 | > 100 | 3.82 | > 100
21 | CN(C)CCCn1c(=O)c2ccccc2c2cnc3[nH]ccc3c21 | 1.27 | 8.35 | 1.77 | 3.51 | 2.12 | 7.21 | 1.83 | 4.44 | 0.838 | 11 | 1.03 | 2.37 | 1.92 | 8.63 | 1.4 | 3.99
22 | COc1ccc(-c2cncn2-c2cc(OC)c(OC)c(OC)c2)cc1 | 0.153 | > 100 | 0.0523 | 5.25 | 0.412 | > 46.4 | 0.179 | 12.7 | 1.87 | > 77 | 0.103 | 17.5 | > 36.3 | > 100 | 0.448 | 21.3
23 | CC(C)N(Cc1ccc(CN(C(=O)CCl)C(C)C)cc1)C(=O)CCl |  |  | 0.451 | 1.81 | 1.77 | 3.32 | 1.86 | 7.12 | 2.33 | 8.13 | 1.9 | 4.27 | 1.38 | 3.63 | 1.33 | 2.85
24 | CN1Cc2ccccc2/C=C\c2ccccc21 |  | > 100 |  | > 100 |  | > 100 |  | > 100 |  |  |  | > 100 |  | > 100 |  | > 100
